Laboratory results reported in ChEMBL document CHEMBL1136222, “1-Benzyloxy-4,5-dihydro-1H-imidazol-2-yl-amines, a novel class of NR1/2B subtype selective NMDA receptor antagonists” (Bioorg Med Chem Lett, 2003).

Tests used:
Glutamate NMDA receptor = experiment: Binding affinity for N-methyl-D-aspartate glutamate receptor was measured through displacement of [3H]25-6981; assay type: protein-complex assay
[1] = pKa value was determined; assay type: physicochemical
[2] = target: T1, Adrenergic receptor alpha-2 (Rattus norvegicus, UniProt P22086+P19328+P22909); experiment: Binding affinity towards Alpha-2 adrenergic receptor was measured through displacement of [3H]-RX-821002; assay type: protein assay
T1 sequence (P22086 whole entry): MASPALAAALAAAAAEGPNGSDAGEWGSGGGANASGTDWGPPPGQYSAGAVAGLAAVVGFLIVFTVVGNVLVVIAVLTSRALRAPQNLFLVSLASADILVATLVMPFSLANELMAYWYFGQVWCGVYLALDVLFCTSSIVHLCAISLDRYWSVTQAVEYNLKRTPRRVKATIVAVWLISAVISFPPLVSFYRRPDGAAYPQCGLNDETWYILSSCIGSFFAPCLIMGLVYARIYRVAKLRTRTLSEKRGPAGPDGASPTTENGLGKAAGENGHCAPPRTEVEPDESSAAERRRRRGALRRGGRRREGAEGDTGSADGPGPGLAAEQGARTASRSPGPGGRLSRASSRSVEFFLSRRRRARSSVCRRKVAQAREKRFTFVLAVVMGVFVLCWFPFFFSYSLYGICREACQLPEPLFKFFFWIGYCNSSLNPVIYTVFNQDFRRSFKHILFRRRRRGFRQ
T1 sequence (P19328 whole entry): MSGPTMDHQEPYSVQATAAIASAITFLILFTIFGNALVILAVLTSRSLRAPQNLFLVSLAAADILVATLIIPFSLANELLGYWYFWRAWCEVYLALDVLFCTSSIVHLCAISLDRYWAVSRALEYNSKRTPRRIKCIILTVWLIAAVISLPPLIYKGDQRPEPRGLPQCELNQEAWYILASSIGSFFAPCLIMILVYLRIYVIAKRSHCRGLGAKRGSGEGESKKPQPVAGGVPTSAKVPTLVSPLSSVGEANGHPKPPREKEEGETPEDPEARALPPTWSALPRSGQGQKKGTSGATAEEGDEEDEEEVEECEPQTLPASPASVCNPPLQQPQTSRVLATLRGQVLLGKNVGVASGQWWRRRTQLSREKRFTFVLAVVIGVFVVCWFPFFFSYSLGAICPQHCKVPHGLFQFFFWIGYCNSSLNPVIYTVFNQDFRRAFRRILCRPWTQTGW
T1 sequence (P22909 whole entry): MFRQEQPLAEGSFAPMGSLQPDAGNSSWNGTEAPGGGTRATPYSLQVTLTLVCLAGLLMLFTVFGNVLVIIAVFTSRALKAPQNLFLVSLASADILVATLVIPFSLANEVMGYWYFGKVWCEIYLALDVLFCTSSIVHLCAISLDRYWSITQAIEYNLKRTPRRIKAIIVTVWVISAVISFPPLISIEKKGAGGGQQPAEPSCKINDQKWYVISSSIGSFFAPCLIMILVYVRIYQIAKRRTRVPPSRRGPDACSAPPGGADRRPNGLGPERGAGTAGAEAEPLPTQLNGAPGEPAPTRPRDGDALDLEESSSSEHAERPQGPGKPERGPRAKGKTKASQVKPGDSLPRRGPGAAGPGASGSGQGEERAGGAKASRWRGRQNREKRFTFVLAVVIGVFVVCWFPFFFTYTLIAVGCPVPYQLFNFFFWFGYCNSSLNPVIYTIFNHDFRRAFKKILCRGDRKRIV

Rattus norvegicus = species: Rattus norvegicus; experiment: Effect on K+ channels in rat cortical neurones at 10 uM; assay type: functional
[3] = target: T2, Adrenergic receptor alpha-1 (Rattus norvegicus, UniProt P15823+P23944+P43140); experiment: Binding affinity towards Alpha-1 adrenergic receptor was measured through displacement of [3H]prazosin; assay type: protein assay
T2 sequence (P15823 whole entry): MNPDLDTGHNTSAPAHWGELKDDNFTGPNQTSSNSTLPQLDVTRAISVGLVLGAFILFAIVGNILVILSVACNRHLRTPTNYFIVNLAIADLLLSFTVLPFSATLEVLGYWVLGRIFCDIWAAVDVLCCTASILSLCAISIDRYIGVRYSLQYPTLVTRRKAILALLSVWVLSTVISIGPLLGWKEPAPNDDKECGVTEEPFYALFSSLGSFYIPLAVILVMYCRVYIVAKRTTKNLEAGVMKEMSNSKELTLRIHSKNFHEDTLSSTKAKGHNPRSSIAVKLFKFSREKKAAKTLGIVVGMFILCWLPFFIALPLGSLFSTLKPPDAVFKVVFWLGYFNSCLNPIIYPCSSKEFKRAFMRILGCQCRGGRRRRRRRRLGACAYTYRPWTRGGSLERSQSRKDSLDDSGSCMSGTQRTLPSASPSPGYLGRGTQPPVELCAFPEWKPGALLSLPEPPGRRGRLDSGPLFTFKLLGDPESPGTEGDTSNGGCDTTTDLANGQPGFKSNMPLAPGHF
T2 sequence (P23944 whole entry): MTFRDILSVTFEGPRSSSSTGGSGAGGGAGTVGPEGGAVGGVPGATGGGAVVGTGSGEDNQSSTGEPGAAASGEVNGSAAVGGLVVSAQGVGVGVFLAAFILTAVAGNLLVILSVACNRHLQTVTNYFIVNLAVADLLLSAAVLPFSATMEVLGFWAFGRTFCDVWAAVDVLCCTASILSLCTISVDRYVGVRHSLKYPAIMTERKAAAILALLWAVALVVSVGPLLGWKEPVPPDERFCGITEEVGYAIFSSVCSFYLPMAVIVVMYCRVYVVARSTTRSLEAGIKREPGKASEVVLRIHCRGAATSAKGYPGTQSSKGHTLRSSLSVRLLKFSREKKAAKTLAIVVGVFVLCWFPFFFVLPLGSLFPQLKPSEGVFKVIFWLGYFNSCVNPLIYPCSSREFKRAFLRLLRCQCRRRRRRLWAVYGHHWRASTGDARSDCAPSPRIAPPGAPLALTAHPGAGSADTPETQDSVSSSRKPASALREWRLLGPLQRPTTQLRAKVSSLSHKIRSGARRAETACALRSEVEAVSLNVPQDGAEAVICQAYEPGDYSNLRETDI
T2 sequence (P43140 whole entry): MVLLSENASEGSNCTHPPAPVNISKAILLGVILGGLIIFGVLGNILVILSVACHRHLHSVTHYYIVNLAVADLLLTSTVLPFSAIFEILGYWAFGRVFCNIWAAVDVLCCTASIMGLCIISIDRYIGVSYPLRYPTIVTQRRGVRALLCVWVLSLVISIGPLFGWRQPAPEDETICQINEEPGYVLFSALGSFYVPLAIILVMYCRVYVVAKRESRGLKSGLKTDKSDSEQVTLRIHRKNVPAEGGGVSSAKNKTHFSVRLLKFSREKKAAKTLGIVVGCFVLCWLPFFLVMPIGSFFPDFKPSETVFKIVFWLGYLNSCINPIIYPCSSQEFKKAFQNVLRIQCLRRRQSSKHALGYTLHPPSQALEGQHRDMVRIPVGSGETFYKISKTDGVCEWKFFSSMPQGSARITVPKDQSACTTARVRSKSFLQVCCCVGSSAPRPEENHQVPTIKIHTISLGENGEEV

`CCCCCSC1=NCCN1OCc1ccccc1` gave a Ki (Glutamate NMDA receptor) of 6000 nM and a pKa [1] of 8.5.
For `CCCCNC1=NCCN1OCc1ccccc1`, the Ki (Glutamate NMDA receptor) was 60 nM.
Molecule `CCCCCNC1=NCCN1OCc1ccccc1C` has a Ki (Glutamate NMDA receptor) of 34 nM.
`c1ccc(COCCNC2=NCCN2OCc2ccccc2)cc1` gave a Ki (Glutamate NMDA receptor) of 1500 nM.
`CCCCCNC1=NCCN1OCc1ccccc1Cl` showed a Ki (Glutamate NMDA receptor) of 38 nM.
For `CCCCCNC1=NCCN1OCc1cccc([N+](=O)[O-])c1`, the Ki (Glutamate NMDA receptor) was 530 nM.
For `CCCCCNc1nc2ccccc2n1CCc1ccccc1`, the pKa [1] was 7.4.
In the case of `CCCCCNC1=NCCN1OCCCc1ccccc1`, the Ki (Glutamate NMDA receptor) is reported as 980 nM and the pKa [1] is reported as 10.
With `CCCCNC1=NCCCN1OCc1ccccc1` the Ki (Glutamate NMDA receptor) was 750 nM and the pKa [1] was > 12.
Work on `CCCCCCNC1=NCCN1OCc1ccccc1` yielded a Ki (Glutamate NMDA receptor) of 75 nM.
In the case of `CCCCC/N=C1/CCCN1CCc1ccccc1`, the pKa [1] is reported as > 11.
Work on `c1ccc(CON2CCN=C2NCc2cccnc2)cc1` yielded a Ki (Glutamate NMDA receptor) of 380 nM.
For `c1ccc(CCNC2=NCCN2OCc2ccccc2)cc1`, the Ki (Glutamate NMDA receptor) was 1100 nM.
`CCCCCNC1=NCCN1OCc1ccc(C)cc1` showed a Ki (Glutamate NMDA receptor) of 230 nM.
In the case of `CCCCCNC1=NCCN1OCc1ccc([N+](=O)[O-])cc1`, the Ki (Glutamate NMDA receptor) is reported as 1100 nM.
Molecule `CCCCCNC1=NCCN1OCCc1ccccc1` has a Ki [2] of 10000 nM, a pKa [1] of 9.9 and an Effect (Rattus norvegicus) of 63%. It also gave a Ki [3] of 4900 nM.
Molecule `CCCCCNC1=NCCN1OCc1ccc(-c2ccccc2)cc1` has a Ki (Glutamate NMDA receptor) of 1100 nM.
`c1ccc(CCCCNC2=NCCN2OCc2ccccc2)cc1` showed a Ki (Glutamate NMDA receptor) of 380 nM.
In the case of `OCCNC1=NCCN1OCc1ccccc1`, the Ki (Glutamate NMDA receptor) is reported as 2250 nM.
`CCCCCNC1=NCCN1OCc1cccc(C)c1` showed a Ki (Glutamate NMDA receptor) of 38 nM.
With `CCCCCNC1=NCCN1OCc1ccccc1OC` the Ki (Glutamate NMDA receptor) was 280 nM.
`CCCCCNC1=NCCN1OCc1ccccc1` showed a Ki [2] of 30000 nM, a pKa [1] of 10.1 and an Effect (Rattus norvegicus) of 48%. It also gave a Ki [3] of 5500 nM.
`Oc1ccc(CCNC2=NCCN2OCc2ccccc2)cc1` showed a Ki (Glutamate NMDA receptor) of 380 nM.
Molecule `CCCCCNC1=NCCN1OCc1ccc(Cl)cc1` has a Ki (Glutamate NMDA receptor) of 170 nM.
For `CCCCCNC1=NCCN1OCc1cccs1`, the Ki (Glutamate NMDA receptor) was 56 nM.
With `CCCCCNC1=NCCN1CCc1ccccc1` the Ki (Glutamate NMDA receptor) was 230 nM and the pKa [1] was > 12.
In the case of `C=CCNC1=NCCN1OCc1ccccc1`, the Ki (Glutamate NMDA receptor) is reported as 1100 nM.
In the case of `CCCCCNC1=NCCN1OCc1ccc(F)cc1`, the Ki (Glutamate NMDA receptor) is reported as 100 nM.
With `CCCCCNC1=NCCN1OCc1cccc(F)c1` the Ki (Glutamate NMDA receptor) was 23 nM.
Work on `CCCCCNC1=NCCN1OCc1cccc(OC)c1` yielded a Ki (Glutamate NMDA receptor) of 560 nM.
Molecule `CCCCCNC1=NCCN1OCc1ccccc1F` has a Ki (Glutamate NMDA receptor) of 15 nM.
Molecule `c1ccc(CON2CCN=C2NC2CC2)cc1` has a Ki (Glutamate NMDA receptor) of 260 nM.
`CC(C)NC1=NCCN1OCc1ccccc1` gave a Ki (Glutamate NMDA receptor) of 5600 nM.
Molecule `c1ccc(CCCNC2=NCCN2OCc2ccccc2)cc1` has a Ki (Glutamate NMDA receptor) of 750 nM.
In the case of `c1ccc(CNC2=NCCN2OCc2ccccc2)cc1`, the Ki (Glutamate NMDA receptor) is reported as 130 nM.
With `CCCCCNC1=NCCN1OCc1ccc(OC)cc1` the Ki (Glutamate NMDA receptor) was 110 nM.
